Assay results reported in ChEMBL document CHEMBL4507292 (2021).

Tests used:
[1] = target: Insulin receptor-related protein (Homo sapiens) (UniProt P14616); details: Compound concentration 1000.0 nM
[2] = target: Cyclin-dependent kinase 18 (Homo sapiens) (UniProt Q07002); details: Compound concentration 1000.0 nM
[3] = target: Sodium-dependent dopamine transporter (Homo sapiens, UniProt Q01959); details: Compound concentration 10.0 uM
[4] = test system: ALK tyrosine kinase receptor (Homo sapiens), Q9UM73 [L1196M]; details: Compound concentration 1000.0 nM
[5] = target: Homeodomain-interacting protein kinase 1 (Homo sapiens) (UniProt Q86Z02); details: Compound concentration 1000.0 nM
[6] = target: 5-hydroxytryptamine receptor 1B (Homo sapiens) (UniProt P28222); details: Compound concentration 10.0 uM
Sequence of 5-hydroxytryptamine receptor 1B (Homo sapiens) (P28222 whole entry): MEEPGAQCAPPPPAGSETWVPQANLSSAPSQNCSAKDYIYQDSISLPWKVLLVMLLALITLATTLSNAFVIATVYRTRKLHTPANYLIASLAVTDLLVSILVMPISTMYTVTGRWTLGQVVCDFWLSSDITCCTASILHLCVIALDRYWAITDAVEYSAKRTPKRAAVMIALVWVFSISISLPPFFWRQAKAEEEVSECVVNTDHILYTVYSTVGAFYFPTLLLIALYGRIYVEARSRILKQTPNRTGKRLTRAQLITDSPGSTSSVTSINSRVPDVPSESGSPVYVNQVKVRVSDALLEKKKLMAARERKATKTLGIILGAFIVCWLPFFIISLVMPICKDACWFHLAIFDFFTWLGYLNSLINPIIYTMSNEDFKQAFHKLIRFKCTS

[7] = target: Calcium/calmodulin-dependent protein kinase type II subunit delta (Homo sapiens) (UniProt Q13557); details: Compound concentration 1000.0 nM
[8] = target: Cyclin-dependent kinase 2 homolog (Plasmodium falciparum (isolate 3D7)) (UniProt P61075); details: Compound concentration 1000.0 nM
[9] = target: Serine/threonine-protein kinase haspin (Homo sapiens) (UniProt Q8TF76); details: Compound concentration 1000.0 nM
[10] = target: Tyrosine-protein kinase Yes (Homo sapiens) (UniProt P07947); details: Compound concentration 1000.0 nM
[11] = target: Mitogen-activated protein kinase kinase kinase 5 (Homo sapiens) (UniProt Q99683); details: Compound concentration 1000.0 nM
[12] = target: Phosphorylase b kinase regulatory subunit alpha, liver isoform (Homo sapiens) (UniProt P46019); details: Compound concentration 1000.0 nM
[13] = target: Serine/threonine-protein kinase SBK1 (Homo sapiens) (UniProt Q52WX2); details: Compound concentration 1000.0 nM
[14] = target: Serine/threonine-protein kinase PLK4 (Homo sapiens) (UniProt O00444); details: Compound concentration 1000.0 nM
[15] = target: Mitogen-activated protein kinase 1 (Homo sapiens) (UniProt P28482); details: Compound concentration 1000.0 nM
Sequence of Mitogen-activated protein kinase 1 (Homo sapiens) (P28482 whole entry): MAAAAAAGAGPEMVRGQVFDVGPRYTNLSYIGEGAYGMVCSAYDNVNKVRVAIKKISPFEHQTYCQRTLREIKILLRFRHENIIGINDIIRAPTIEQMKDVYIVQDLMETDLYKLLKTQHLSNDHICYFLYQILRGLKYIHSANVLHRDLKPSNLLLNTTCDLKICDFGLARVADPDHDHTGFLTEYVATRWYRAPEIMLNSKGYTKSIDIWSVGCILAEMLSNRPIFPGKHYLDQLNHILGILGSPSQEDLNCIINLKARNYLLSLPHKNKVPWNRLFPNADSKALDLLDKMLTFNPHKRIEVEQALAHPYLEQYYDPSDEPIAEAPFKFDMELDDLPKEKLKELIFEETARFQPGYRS

[16] = target: Ephrin type-A receptor 3 (Homo sapiens) (UniProt P29320); details: Compound concentration 1000.0 nM
[17] = target: Bone morphogenetic protein receptor type-2 (Homo sapiens) (UniProt Q13873); details: Compound concentration 1000.0 nM
[18] = target: Mast/stem cell growth factor receptor Kit (Homo sapiens) (UniProt P10721); details: Compound concentration 1000.0 nM
[19] = target: Proto-oncogene tyrosine-protein kinase Src (Homo sapiens) (UniProt P12931); details: Compound concentration 1000.0 nM
Sequence of Proto-oncogene tyrosine-protein kinase Src (Homo sapiens) (P12931 2-536 limits assumed): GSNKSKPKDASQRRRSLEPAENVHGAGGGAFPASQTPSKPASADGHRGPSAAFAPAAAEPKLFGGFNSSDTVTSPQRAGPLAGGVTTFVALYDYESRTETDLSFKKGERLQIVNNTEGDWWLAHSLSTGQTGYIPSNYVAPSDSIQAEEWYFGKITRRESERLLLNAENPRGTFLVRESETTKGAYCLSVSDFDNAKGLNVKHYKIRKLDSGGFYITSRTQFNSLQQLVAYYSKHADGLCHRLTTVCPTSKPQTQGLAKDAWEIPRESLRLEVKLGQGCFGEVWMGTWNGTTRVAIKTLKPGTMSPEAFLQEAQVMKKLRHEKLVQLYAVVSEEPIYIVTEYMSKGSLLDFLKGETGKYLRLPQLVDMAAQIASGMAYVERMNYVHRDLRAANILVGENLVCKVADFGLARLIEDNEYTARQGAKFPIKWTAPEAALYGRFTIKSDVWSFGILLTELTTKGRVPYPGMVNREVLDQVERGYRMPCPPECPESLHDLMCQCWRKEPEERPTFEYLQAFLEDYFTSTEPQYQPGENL

[20] = test system: Mast/stem cell growth factor receptor Kit (Homo sapiens), P10721 [D816H]; details: Compound concentration 1000.0 nM
[21] = target: Serine/threonine-protein kinase SIK2 (Homo sapiens) (UniProt Q9H0K1); details: Compound concentration 1000.0 nM
[22] = target: Ribosomal protein S6 kinase alpha-6 (Homo sapiens) (UniProt Q9UK32); details: Compound concentration 1000.0 nM
[23] = target: Serine/threonine-protein kinase 32A (Homo sapiens) (UniProt Q8WU08); details: Compound concentration 1000.0 nM
Sequence of Serine/threonine-protein kinase 32A (Homo sapiens) (Q8WU08 whole entry): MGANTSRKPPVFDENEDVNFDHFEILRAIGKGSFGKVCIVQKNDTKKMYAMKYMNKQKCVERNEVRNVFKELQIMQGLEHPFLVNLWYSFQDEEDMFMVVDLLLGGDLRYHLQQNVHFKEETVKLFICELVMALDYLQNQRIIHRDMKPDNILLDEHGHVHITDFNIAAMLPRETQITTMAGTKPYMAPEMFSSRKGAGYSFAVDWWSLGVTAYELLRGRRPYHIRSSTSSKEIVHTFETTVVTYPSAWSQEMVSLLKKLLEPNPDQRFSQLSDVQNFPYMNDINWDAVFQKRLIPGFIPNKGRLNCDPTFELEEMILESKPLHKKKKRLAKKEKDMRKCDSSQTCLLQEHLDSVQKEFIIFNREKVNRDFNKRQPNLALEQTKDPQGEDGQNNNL

[24] = target: Serine/threonine-protein kinase pim-3 (Homo sapiens) (UniProt Q86V86); details: Compound concentration 1000.0 nM
[25] = target: Dual specificity protein kinase CLK2 (Homo sapiens) (UniProt P49760); details: Compound concentration 1000.0 nM
[26] = target: Serine/threonine-protein kinase ULK3 (Homo sapiens) (UniProt Q6PHR2); details: Compound concentration 1000.0 nM
[27] = test system: Tyrosine-protein kinase ABL1 (Homo sapiens), P00519 [Q252H]; details: Compound concentration 1000.0 nM
[28] = target: Serine/threonine-protein kinase 32B (Homo sapiens) (UniProt Q9NY57); details: Compound concentration 1000.0 nM
[29] = target: Ephrin type-A receptor 7 (Homo sapiens) (UniProt Q15375); details: Compound concentration 1000.0 nM
Sequence of Ephrin type-A receptor 7 (Homo sapiens) (Q15375 28-998 limits assumed): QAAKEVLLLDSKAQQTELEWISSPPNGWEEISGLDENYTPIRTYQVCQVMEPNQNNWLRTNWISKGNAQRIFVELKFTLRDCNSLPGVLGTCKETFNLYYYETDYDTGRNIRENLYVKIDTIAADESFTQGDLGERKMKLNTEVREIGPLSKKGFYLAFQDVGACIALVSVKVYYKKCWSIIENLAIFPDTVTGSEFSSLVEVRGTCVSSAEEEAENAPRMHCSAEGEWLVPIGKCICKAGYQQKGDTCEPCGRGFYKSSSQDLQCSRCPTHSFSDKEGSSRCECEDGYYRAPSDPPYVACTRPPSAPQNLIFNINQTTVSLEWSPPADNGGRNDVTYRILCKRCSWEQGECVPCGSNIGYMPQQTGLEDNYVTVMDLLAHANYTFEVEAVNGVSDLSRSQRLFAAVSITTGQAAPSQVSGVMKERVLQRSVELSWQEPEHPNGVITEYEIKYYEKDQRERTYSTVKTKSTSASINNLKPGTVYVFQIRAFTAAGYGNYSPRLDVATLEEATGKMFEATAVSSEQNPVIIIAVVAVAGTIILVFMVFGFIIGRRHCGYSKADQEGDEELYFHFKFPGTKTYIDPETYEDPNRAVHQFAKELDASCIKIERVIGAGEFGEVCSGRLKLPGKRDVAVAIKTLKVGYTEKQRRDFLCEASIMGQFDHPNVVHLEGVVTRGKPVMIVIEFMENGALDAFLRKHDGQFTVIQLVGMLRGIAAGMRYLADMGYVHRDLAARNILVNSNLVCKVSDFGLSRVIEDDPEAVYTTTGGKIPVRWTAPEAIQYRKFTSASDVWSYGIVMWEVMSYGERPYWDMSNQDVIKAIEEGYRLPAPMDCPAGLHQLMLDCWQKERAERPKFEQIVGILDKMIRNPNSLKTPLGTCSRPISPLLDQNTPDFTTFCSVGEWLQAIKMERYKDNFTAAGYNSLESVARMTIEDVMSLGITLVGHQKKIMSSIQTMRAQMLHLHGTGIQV

[30] = target: Myotonin-protein kinase (Homo sapiens) (UniProt Q09013); details: Compound concentration 1000.0 nM
Sequence of Myotonin-protein kinase (Homo sapiens) (Q09013 whole entry): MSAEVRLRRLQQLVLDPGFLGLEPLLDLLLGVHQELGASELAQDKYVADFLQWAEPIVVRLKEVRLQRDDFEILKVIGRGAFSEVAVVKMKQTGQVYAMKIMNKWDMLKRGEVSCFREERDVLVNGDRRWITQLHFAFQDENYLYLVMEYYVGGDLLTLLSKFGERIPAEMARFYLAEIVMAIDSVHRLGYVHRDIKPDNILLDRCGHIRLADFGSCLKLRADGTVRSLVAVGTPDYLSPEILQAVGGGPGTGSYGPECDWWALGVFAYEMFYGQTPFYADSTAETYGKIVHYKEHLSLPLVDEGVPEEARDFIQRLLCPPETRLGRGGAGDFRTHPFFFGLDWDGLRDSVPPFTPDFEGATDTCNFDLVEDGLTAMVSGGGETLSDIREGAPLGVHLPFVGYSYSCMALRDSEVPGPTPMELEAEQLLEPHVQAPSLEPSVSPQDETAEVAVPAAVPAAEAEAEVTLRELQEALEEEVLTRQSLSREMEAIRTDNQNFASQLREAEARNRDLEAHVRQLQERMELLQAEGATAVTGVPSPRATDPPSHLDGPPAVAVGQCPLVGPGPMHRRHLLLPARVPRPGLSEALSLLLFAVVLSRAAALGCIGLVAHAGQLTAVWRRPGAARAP

[31] = target: T1, Alpha-2C adrenergic receptor (Homo sapiens) (UniProt P18825); details: Compound concentration 10.0 uM
T1 sequence (whole entry): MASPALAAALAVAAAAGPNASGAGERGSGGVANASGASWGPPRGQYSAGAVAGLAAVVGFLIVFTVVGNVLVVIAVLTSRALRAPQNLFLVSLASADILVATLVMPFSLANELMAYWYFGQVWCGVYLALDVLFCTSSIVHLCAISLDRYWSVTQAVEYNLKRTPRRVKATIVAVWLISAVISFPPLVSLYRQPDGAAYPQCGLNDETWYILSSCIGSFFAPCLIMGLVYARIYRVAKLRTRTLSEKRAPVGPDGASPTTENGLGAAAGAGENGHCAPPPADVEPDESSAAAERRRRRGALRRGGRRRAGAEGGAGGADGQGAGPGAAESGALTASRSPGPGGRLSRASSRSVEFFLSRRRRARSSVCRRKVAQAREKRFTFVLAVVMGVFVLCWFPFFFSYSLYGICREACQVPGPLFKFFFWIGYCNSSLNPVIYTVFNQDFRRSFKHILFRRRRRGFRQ

[32] = target: Insulin-like growth factor 1 receptor (Homo sapiens) (UniProt P08069); details: Compound concentration 1000.0 nM
[33] = target: LIM domain kinase 1 (Homo sapiens) (UniProt P53667); details: Compound concentration 1000.0 nM
[34] = target: Rhodopsin kinase GRK7 (Homo sapiens) (UniProt Q8WTQ7); details: Compound concentration 1000.0 nM
[35] = target: Mitogen-activated protein kinase 9 (Homo sapiens) (UniProt P45984); details: Compound concentration 1000.0 nM
[36] = test system: Epidermal growth factor receptor (Homo sapiens), P00533 [UNDEFINED MUTATION]; details: Compound concentration 1000.0 nM
[37] = target: Serine/threonine-protein kinase PLK2 (Homo sapiens) (UniProt Q9NYY3); details: Compound concentration 1000.0 nM
[38] = test system: Tyrosine-protein kinase ABL1 (Homo sapiens), P00519 [F317L]; details: Compound concentration 1000.0 nM
[39] = target: cAMP-dependent protein kinase catalytic subunit beta (Homo sapiens) (UniProt P22694); details: Compound concentration 1000.0 nM

Sequence of Cyclin-dependent kinase 18 (Homo sapiens) (Q07002 whole entry): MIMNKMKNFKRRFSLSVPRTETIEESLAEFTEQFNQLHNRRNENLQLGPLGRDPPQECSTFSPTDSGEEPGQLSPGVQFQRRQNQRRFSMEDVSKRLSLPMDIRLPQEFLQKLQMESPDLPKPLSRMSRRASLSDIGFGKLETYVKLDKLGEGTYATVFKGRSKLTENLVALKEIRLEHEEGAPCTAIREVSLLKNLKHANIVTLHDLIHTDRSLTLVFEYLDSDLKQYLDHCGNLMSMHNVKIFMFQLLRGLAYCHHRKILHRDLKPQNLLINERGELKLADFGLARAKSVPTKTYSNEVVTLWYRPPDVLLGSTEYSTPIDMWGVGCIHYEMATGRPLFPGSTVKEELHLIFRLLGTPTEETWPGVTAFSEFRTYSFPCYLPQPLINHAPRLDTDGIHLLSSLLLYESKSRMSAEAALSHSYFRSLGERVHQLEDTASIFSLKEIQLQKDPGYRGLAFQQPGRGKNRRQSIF
Sequence of Insulin receptor-related protein (Homo sapiens) (P14616 27-742 limits assumed): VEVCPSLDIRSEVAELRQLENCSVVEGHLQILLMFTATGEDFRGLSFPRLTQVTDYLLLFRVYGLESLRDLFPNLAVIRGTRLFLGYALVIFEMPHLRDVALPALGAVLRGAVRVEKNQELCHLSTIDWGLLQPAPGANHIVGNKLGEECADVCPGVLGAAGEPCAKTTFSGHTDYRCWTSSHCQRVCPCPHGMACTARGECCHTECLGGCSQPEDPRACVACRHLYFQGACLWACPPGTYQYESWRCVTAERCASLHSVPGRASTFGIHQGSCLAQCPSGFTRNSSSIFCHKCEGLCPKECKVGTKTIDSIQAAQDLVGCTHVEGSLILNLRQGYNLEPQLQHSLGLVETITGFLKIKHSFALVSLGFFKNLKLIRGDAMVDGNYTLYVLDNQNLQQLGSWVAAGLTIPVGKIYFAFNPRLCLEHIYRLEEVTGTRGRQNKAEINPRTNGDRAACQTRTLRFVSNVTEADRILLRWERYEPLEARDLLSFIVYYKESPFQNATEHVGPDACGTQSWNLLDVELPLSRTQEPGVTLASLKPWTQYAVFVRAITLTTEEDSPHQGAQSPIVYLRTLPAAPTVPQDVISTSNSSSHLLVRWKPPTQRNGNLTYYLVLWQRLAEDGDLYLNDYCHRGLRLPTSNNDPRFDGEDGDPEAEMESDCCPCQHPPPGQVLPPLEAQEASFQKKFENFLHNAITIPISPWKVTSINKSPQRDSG
Sequence of Insulin receptor-related protein (Homo sapiens) (P14616 747-1297 limits assumed): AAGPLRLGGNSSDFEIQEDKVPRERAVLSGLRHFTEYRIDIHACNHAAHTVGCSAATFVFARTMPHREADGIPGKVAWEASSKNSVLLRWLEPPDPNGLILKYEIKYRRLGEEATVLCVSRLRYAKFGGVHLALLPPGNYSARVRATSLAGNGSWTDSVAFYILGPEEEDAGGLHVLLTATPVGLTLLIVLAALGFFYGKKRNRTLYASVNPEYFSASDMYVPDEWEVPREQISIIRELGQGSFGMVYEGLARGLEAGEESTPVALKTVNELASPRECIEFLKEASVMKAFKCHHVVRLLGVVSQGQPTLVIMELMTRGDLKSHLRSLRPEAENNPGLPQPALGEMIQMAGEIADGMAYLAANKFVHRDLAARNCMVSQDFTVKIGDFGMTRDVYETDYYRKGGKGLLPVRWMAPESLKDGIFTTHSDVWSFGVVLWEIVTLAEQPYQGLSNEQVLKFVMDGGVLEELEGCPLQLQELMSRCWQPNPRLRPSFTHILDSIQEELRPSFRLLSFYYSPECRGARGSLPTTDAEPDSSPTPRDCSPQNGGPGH

Cc1c(C(=O)O)cc(-c2ccc(C3CCNCC3)cc2)c2ccc(-c3ccc(C(F)(F)F)cc3)cc12 [PPTN-NC]
inactive: residual activity [1] 100% | residual activity [2] 100% | inhibition [3] 31.2% | residual activity [4] 100% | residual activity [5] 100% | inhibition [6] 14.4% | residual activity [7] 100% | residual activity [8] 100% | residual activity [9] 100% | residual activity [10] 100% | residual activity [11] 100% | residual activity [12] 100% | residual activity [13] 100% | residual activity [14] 96% | residual activity [15] 100% | residual activity [16] 100% | residual activity [17] 100% | residual activity [18] 100% | residual activity [19] 100% | residual activity [20] 100% | residual activity [21] 100% | residual activity [22] 100% | residual activity [23] 89% | residual activity [24] 100% | residual activity [25] 100% | residual activity [26] 95% | residual activity [27] 85% | residual activity [28] 100% | residual activity [29] 100% | residual activity [30] 86% | inhibition [31] 46.4% | residual activity [32] 90% | residual activity [33] 100% | residual activity [34] 91% | residual activity [35] 100% | residual activity [36] 100% | residual activity [37] 100% | residual activity [38] 100% | residual activity [39] 84%

O=C(O)c1cc(-c2ccc(C3CCNCC3)cc2)c2ccc(-c3ccc(C(F)(F)F)cc3)cc2c1 [PPTN]
inactive: residual activity [1] 100% | residual activity [2] 100% | inhibition [3] 37.7% | residual activity [4] 100% | residual activity [5] 97% | inhibition [6] 20.4% | residual activity [7] 100% | residual activity [8] 100% | residual activity [9] 100% | residual activity [10] 100% | residual activity [11] 100% | residual activity [12] 100% | residual activity [13] 100% | residual activity [14] 80% | residual activity [15] 97% | residual activity [16] 100% | residual activity [17] 100% | residual activity [18] 100% | residual activity [19] 100% | residual activity [20] 100% | residual activity [21] 100% | residual activity [22] 100% | residual activity [23] 100% | residual activity [24] 100% | residual activity [25] 100% | residual activity [26] 100% | residual activity [27] 100% | residual activity [28] 100% | residual activity [29] 100% | residual activity [30] 100% | inhibition [31] 30.2% | residual activity [32] 95% | residual activity [33] 100% | residual activity [34] 85% | residual activity [35] 100% | residual activity [36] 100% | residual activity [37] 100% | residual activity [38] 100% | residual activity [39] 100%
